Measurements taken from ChEMBL document CHEMBL1201862, “PubChem BioAssay data set” (2004).
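Growth conditions: 96-well plates. Treatment: test compound, 48 hours, 5 concentrations. Analysis: linear interpolation between bracketing concentrations; unreached endpoints set to highest concentration. Here, GI50 denotes the concentration required for 50% inhibition of growth.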 Active and inactive are the calls of the source. Cut-off read from the data, not from the text of the source: active = GI50 up to about 1.1 µM and inactive = higher.

What was measured:
Experiment in all cases: growth of human tumour cells (NCI), 48 h
[1] = system: NCI-H226
[2] = system: SK-MEL-28
[3] = system: OVCAR-5
[4] = system: CCRF-CEM
[5] = system: CAKI-1
[6] = system: Malme-3M
[7] = system: A549
[8] = system: NCI-H460
[9] = system: SNB-19
[10] = system: A498
[11] = system: MDA-MB-231
[12] = system: HCT-15
[13] = system: SF-295
[14] = system: NCI-H23
[15] = system: SK-MEL-5
[16] = system: DU-145
[17] = system: SW-620
[18] = system: UACC-62
[19] = system: U-251
[20] = system: MDA-MB-435
[21] = system: MCF7
[22] = system: UACC-257
[23] = system: HOP-62
[24] = system: HCT-116
[25] = system: SR
[26] = system: EKVX
[27] = system: ACHN
[28] = system: PC-3
[29] = system: HCC 2998
[30] = system: SF-268
[31] = system: SN12C
[32] = system: M14
[33] = system: HT-29
[34] = system: SNB-75
[35] = system: TK-10
[36] = system: T47D
[37] = system: 786-0
[38] = system: BT-549
[39] = system: RXF 393
[40] = system: MDA-N
[41] = system: OVCAR-3
[42] = system: HOP-92
[43] = system: OVCAR-4
[44] = system: NCI-H522
[45] = system: MOLT-4
[46] = system: OVCAR-8
[47] = system: KM12
[48] = system: SK-OV-3
[49] = system: Hs-578T
[50] = system: K562
[51] = system: UO-31
[52] = system: IGROV-1
[53] = system: LOX IMVI
[54] = system: NCI/ADR-RES
[55] = system: COLO 205
[56] = system: HL-60
[57] = system: SK-MEL-2
[58] = system: RPMI-8226
[59] = system: SF-539

With `CC(=O)O[C@H]1CC[C@@]2(C)C(=CC[C@@H]3[C@@H]2CC[C@]2(C)c4c(C)n[nH]c4C[C@@H]32)C1` the GI50 [1] was 16.5 µM (inactive), the GI50 [2] was 20.7 µM (inactive) and the GI50 [3] was 14.9 µM (inactive). For the same compound, the GI50 [4] was 4.97 µM (inactive), the GI50 [5] was 16.8 µM (inactive) and the GI50 [6] was 3.75 µM (inactive). For the same compound, the GI50 [7] was 14.2 µM (inactive), the GI50 [8] was 15.6 µM (inactive) and the GI50 [9] was 19.5 µM (inactive). For the same compound, the GI50 [10] was 20.3 µM (inactive), the GI50 [11] was 21.1 µM (inactive) and the GI50 [12] was 15 µM. The GI50 [13] was 20.4 µM (inactive), the GI50 [14] was 14.1 µM (inactive) and the GI50 [15] was 13.4 µM (inactive). The GI50 [16] was 14.2 µM (inactive), the GI50 [17] was 16.9 µM (inactive) and the GI50 [18] was 12 µM (inactive). The GI50 [19] was 15.3 µM (inactive), the GI50 [20] was 16 µM (inactive) and the GI50 [21] was 11.5 µM (inactive). For the same compound, the GI50 [22] was 16.7 µM (inactive), the GI50 [23] was 21.1 µM (inactive) and the GI50 [24] was 11.2 µM (inactive). For the same compound, the GI50 [25] was 22.3 µM (inactive), the GI50 [26] was 17.9 µM (inactive) and the GI50 [27] was 17.9 µM (inactive). For the same compound, the GI50 [28] was 17.3 µM (inactive), the GI50 [29] was 18.5 µM (inactive) and the GI50 [30] was 23.4 µM (inactive). The GI50 [31] was 19.4 µM (inactive), the GI50 [32] was 16 µM (inactive) and the GI50 [33] was 10.3 µM (inactive). The GI50 [34] was 12.2 µM (inactive), the GI50 [35] was 19.2 µM (inactive) and the GI50 [36] was 9.53 µM (inactive). The GI50 [37] was 17.4 µM (inactive), the GI50 [38] was 15.2 µM (inactive) and the GI50 [39] was 11.4 µM (inactive). The GI50 [40] was 20.1 µM (inactive), the GI50 [41] was 12.2 µM (inactive) and the GI50 [42] was 21 µM (inactive). The GI50 [43] was 15.7 µM (inactive), the GI50 [44] was 6.92 µM (inactive) and the GI50 [45] was 11.7 µM (inactive). The GI50 [46] was 31 µM (inactive), the GI50 [47] was 15.3 µM (inactive) and the GI50 [48] was 26.9 µM (inactive). For the same compound, the GI50 [49] was 17.6 µM (inactive), the GI50 [50] was 2.54 µM (inactive) and the GI50 [51] was 17.7 µM (inactive). For the same compound, the GI50 [52] was 20.8 µM (inactive), the GI50 [53] was 31.5 µM (inactive) and the GI50 [54] was 26.1 µM (inactive). For the same compound, the GI50 [55] was 14.7 µM (inactive) and the GI50 [56] was 10.1 µM (inactive).

With `C=C(O)c1ccccc1C#Cc1ccccc1C(=O)OC` the GI50 [1] was > 10 µM (inactive), the GI50 [2] was > 10 µM (inactive) and the GI50 [3] was > 10 µM (inactive). The GI50 [4] was > 10 µM (inactive), the GI50 [5] was > 10 µM (inactive) and the GI50 [6] was > 10 µM (inactive). For the same compound, the GI50 [7] was > 10 µM (inactive), the GI50 [8] was > 10 µM (inactive) and the GI50 [9] was > 10 µM (inactive). The GI50 [10] was > 10 µM (inactive), the GI50 [11] was > 10 µM (inactive) and the GI50 [12] was > 10 µM. The GI50 [13] was > 10 µM (inactive), the GI50 [14] was > 10 µM (inactive) and the GI50 [15] was > 10 µM (inactive). The GI50 [16] was > 10 µM (inactive), the GI50 [17] was > 10 µM (inactive) and the GI50 [18] was > 10 µM (inactive). The GI50 [19] was > 10 µM (inactive), the GI50 [20] was > 10 µM (inactive) and the GI50 [21] was > 10 µM (inactive). For the same compound, the GI50 [22] was > 10 µM (inactive), the GI50 [23] was > 10 µM (inactive) and the GI50 [24] was > 10 µM (inactive). For the same compound, the GI50 [57] was > 10 µM (inactive), the GI50 [25] was > 10 µM (inactive) and the GI50 [26] was > 10 µM (inactive). The GI50 [58] was > 10 µM (inactive), the GI50 [27] was > 10 µM (inactive) and the GI50 [28] was > 10 µM (inactive). For the same compound, the GI50 [29] was > 10 µM (inactive), the GI50 [30] was > 10 µM (inactive) and the GI50 [31] was > 10 µM (inactive). The GI50 [32] was > 10 µM (inactive), the GI50 [33] was > 10 µM (inactive) and the GI50 [34] was 3.66 µM (inactive). The GI50 [35] was > 10 µM (inactive), the GI50 [36] was > 10 µM (inactive) and the GI50 [37] was > 10 µM (inactive). The GI50 [38] was > 10 µM (inactive), the GI50 [39] was > 10 µM (inactive) and the GI50 [59] was > 10 µM (inactive). For the same compound, the GI50 [40] was > 10 µM (inactive), the GI50 [41] was > 10 µM (inactive) and the GI50 [43] was > 10 µM (inactive). For the same compound, the GI50 [44] was > 10 µM (inactive), the GI50 [45] was > 10 µM (inactive) and the GI50 [46] was > 10 µM (inactive). The GI50 [47] was > 10 µM (inactive), the GI50 [48] was > 10 µM (inactive) and the GI50 [49] was > 10 µM (inactive). The GI50 [50] was > 10 µM (inactive), the GI50 [51] was > 10 µM (inactive) and the GI50 [52] was > 10 µM (inactive). For the same compound, the GI50 [53] was > 10 µM (inactive), the GI50 [54] was > 10 µM (inactive) and the GI50 [55] was > 10 µM (inactive). For the same compound, the GI50 [56] was > 10 µM (inactive).

`CC(C)OP(=O)(CCCCCCCCC/C=C/c1ccc2c(c1)OCCOCCOCCOCCO2)OC(C)C` was tested, and the GI50 [1] was 3.37 µM (inactive), the GI50 [2] was 6.61 µM (inactive) and the GI50 [3] was 3.42 µM (inactive). For the same compound, the GI50 [4] was 2.71 µM (inactive), the GI50 [5] was 3.51 µM (inactive) and the GI50 [6] was 3.73 µM (inactive). For the same compound, the GI50 [7] was 3.49 µM (inactive), the GI50 [8] was 2.61 µM (inactive) and the GI50 [9] was 3.41 µM (inactive). For the same compound, the GI50 [11] was 2.85 µM (inactive), the GI50 [12] was 2.46 µM and the GI50 [13] was 3.08 µM (inactive). The GI50 [14] was 2.85 µM (inactive), the GI50 [15] was 2.74 µM (inactive) and the GI50 [16] was 4.59 µM (inactive). The GI50 [17] was 3.82 µM (inactive), the GI50 [18] was 3.79 µM (inactive) and the GI50 [19] was 2.75 µM (inactive). For the same compound, the GI50 [20] was 3.87 µM (inactive), the GI50 [21] was 3.23 µM (inactive) and the GI50 [22] was 2.88 µM (inactive). For the same compound, the GI50 [23] was 2.42 µM (inactive), the GI50 [24] was 3.38 µM (inactive) and the GI50 [57] was 2.96 µM (inactive). For the same compound, the GI50 [25] was 4.22 µM (inactive), the GI50 [26] was 3.79 µM (inactive) and the GI50 [58] was 1.41 µM (inactive). For the same compound, the GI50 [27] was 3.48 µM (inactive), the GI50 [28] was 2.84 µM (inactive) and the GI50 [29] was 4.04 µM (inactive). The GI50 [30] was 3.8 µM (inactive), the GI50 [31] was 3.36 µM (inactive) and the GI50 [32] was 3.52 µM (inactive). The GI50 [33] was 3.05 µM (inactive), the GI50 [34] was 3.01 µM (inactive) and the GI50 [35] was 9.29 µM (inactive). For the same compound, the GI50 [36] was 2.79 µM (inactive), the GI50 [37] was 3.78 µM (inactive) and the GI50 [38] was 3.03 µM (inactive). For the same compound, the GI50 [39] was 2.7 µM (inactive), the GI50 [59] was 2.62 µM (inactive) and the GI50 [40] was 3.4 µM (inactive). The GI50 [41] was 2.61 µM (inactive), the GI50 [42] was 2.2 µM (inactive) and the GI50 [43] was 4.8 µM (inactive). The GI50 [44] was 2.76 µM (inactive), the GI50 [45] was 3.04 µM (inactive) and the GI50 [46] was 3.15 µM (inactive). For the same compound, the GI50 [47] was 2.8 µM (inactive), the GI50 [48] was 3.19 µM (inactive) and the GI50 [49] was 2.45 µM (inactive). For the same compound, the GI50 [50] was 6.37 µM (inactive), the GI50 [51] was 2.72 µM (inactive) and the GI50 [52] was 4.46 µM (inactive). The GI50 [53] was 2.16 µM (inactive), the GI50 [54] was 2.98 µM (inactive) and the GI50 [55] was 1.99 µM (inactive). For the same compound, the GI50 [56] was 7.67 µM (inactive).
